Experimental data as given in PubChem BioAssay AID274 (DTP/NCI, 2004).
Several values for one entry are separate records, joined by “and”; a condition that tells them apart may be missing. Equal entries are not always repeated. Inconclusive results and toxic doses are left out.

Test system: BDF1 mice, Lewis lung carcinoma iv, survival T/C
Experiment: NCI In Vivo Anticancer Drug Screen. Data for tumor model Lewis Lung Carcinoma (intravenous) in B6D2F1 (BDF1) mice
Details: endpoint: median survival time, higher = longer survival
Protocol: The antitumor activity of compounds was measured in mice bearing transplantable tumors. Survival or tumor size were measured and the results are expressed as the measurement made in the treated group (T) divided by the measurement made in the vehicle treated control group (C). The tumor model used in this assay is Lewis Lung Carcinoma (intravenous) in B6D2F1 (BDF1) mice

[1] = dose: 25.0 mg/kg/injection, schedule: Q01DX009 (ip), vehicle: saline
[2] = dose: 50.0 mg/kg/injection, schedule: Q01DX009 (ip), vehicle: saline
[3] = dose: 100.0 mg/kg/injection, schedule: Q01DX009 (ip), vehicle: saline
[4] = dose: 200.0 mg/kg/injection, schedule: Q01DX009 (ip), vehicle: saline
[5] = dose: 12.5 mg/kg/injection, schedule: Q01DX009 (ip), vehicle: Klucel (hydroxypropylcellulose) (HPC)
[6] = dose: 25.0 mg/kg/injection, schedule: Q01DX009 (ip), vehicle: Klucel (hydroxypropylcellulose) (HPC)
[7] = dose: 50.0 mg/kg/injection, schedule: Q01DX009 (ip), vehicle: Klucel (hydroxypropylcellulose) (HPC)
[8] = dose: 6.25 mg/kg/injection, schedule: Q01DX009 (ip), vehicle: saline
[9] = dose: 12.5 mg/kg/injection, schedule: Q01DX009 (ip), vehicle: saline
[10] = dose: 12.5 mg/kg/injection, schedule: Q01DX009 (ip), vehicle: saline with Tween-80
[11] = dose: 25.0 mg/kg/injection, schedule: Q01DX009 (ip), vehicle: saline with Tween-80
[12] = dose: 50.0 mg/kg/injection, schedule: Q01DX009 (ip), vehicle: saline with Tween-80
[13] = dose: 100.0 mg/kg/injection, schedule: Q01DX009 (ip), vehicle: saline with Tween-80
[14] = dose: 200.0 mg/kg/injection, schedule: Q01DX009 (ip), vehicle: saline with Tween-80
[15] = dose: 6.25 mg/kg/injection, schedule: Q01DX009 (ip), vehicle: saline with Tween-80
[16] = dose: 100.0 mg/kg/injection, schedule: Q01DX009 (ip), vehicle: Klucel (hydroxypropylcellulose) (HPC)

SMILES: N[C@@H](Cc1ccc(N(CCCl)CCCl)cc1)C(=O)O
- T/C (dose: 0.25 mg/kg/injection, schedule: Q01DX009 (ip), vehicle: saline): 92 % of control
- T/C (dose: 0.5 mg/kg/injection, schedule: Q01DX009 (ip), vehicle: saline): 99 % of control and 102 % of control and 103 % of control
- T/C (dose: 1.0 mg/kg/injection, schedule: Q01DX009 (ip), vehicle: saline): 104 % of control and 105 % of control and 109 % of control
- T/C (dose: 1.95 mg/kg/injection, schedule: Q04DX003 (ip), vehicle: saline): 92 % of control
- T/C (dose: 2.0 mg/kg/injection, schedule: Q01DX009 (ip), vehicle: saline): 96 % of control and 110 % of control and 117 % of control
- T/C (dose: 3.24 mg/kg/injection, schedule: Q04DX003 (ip), vehicle: saline): 98 % of control
- T/C (dose: 3.4 mg/kg/injection, schedule: Q04DX003 (ip), vehicle: saline): 100 % of control
- T/C (dose: 4.0 mg/kg/injection, schedule: Q01DX009 (ip), vehicle: saline): 112 % of control and 114 % of control
- T/C (dose: 4.9 mg/kg/injection, schedule: Q04DX003 (ip), vehicle: saline): 106 % of control
- T/C (dose: 5.4 mg/kg/injection, schedule: Q04DX003 (ip), vehicle: saline): 100 % of control
- T/C (dose: 8.0 mg/kg/injection, schedule: Q01DX009 (ip), vehicle: saline): 113 % of control
- T/C (dose: 9.0 mg/kg/injection, schedule: Q04DX003 (ip), vehicle: saline): 154 % of control
- T/C (dose: 14.3 mg/kg/injection, schedule: Q04DX003 (ip), vehicle: saline): 122 % of control

SMILES: CC(=O)OCc1ncccc1OC(C)=O
- T/C [1]: 97 % of control
- T/C [2]: 100 % of control
- T/C [3]: 101 % of control
- T/C [4]: 104 % of control

SMILES: CC(=O)OCC1OC(n2cc(CBr)nn2)C(OC(C)=O)C(OC(C)=O)C1OC(C)=O (configuration not stated)
- T/C (dose: 3.12 mg/kg/injection, schedule: Q01DX009 (ip), vehicle: Klucel (hydroxypropylcellulose) (HPC)): 87 % of control
- T/C (dose: 6.25 mg/kg/injection, schedule: Q01DX009 (ip), vehicle: Klucel (hydroxypropylcellulose) (HPC)): 88 % of control
- T/C [5]: 102 % of control
- T/C [6]: 106 % of control
- T/C [7]: 96 % of control

SMILES: CC(=O)OC1C2(CC3N4C(=O)C5(CO)SSC4(CC31O)C(=O)N5C)OC(C)C(C)(C)C2=O (configuration not stated)
- T/C (dose: 0.62 mg/kg/injection, schedule: Q01DX009 (ip), vehicle: saline): 171 % of control

SMILES: C(CSC1=NCCN1)CSC1=NCCN1
- T/C [8]: 93 % of control
- T/C [9]: 100 % of control
- T/C [1]: 93 % of control
- T/C [2]: 93 % of control
- T/C [3]: 102 % of control
- T/C [4]: 100 % of control

SMILES: CSCCC(N)C(=O)O (configuration not stated)
- T/C (dose: 18.75 mg/kg/injection, schedule: Q01DX009 (ip), vehicle: saline with Tween-80): 101 % of control
- T/C (dose: 37.5 mg/kg/injection, schedule: Q01DX009 (ip), vehicle: saline with Tween-80): 93 % of control
- T/C (dose: 40.0 mg/kg/injection, schedule: Q01DX009 (ip), vehicle: saline with Tween-80): 100 % of control
- T/C (dose: 75.0 mg/kg/injection, schedule: Q01DX009 (ip), vehicle: saline with Tween-80): 101 % of control
- T/C (dose: 80.0 mg/kg/injection, schedule: Q01DX009 (ip), vehicle: saline with Tween-80): 97 % of control
- T/C (dose: 150.0 mg/kg/injection, schedule: Q01DX009 (ip), vehicle: saline with Tween-80): 91 % of control
- T/C (dose: 160.0 mg/kg/injection, schedule: Q01DX009 (ip), vehicle: saline with Tween-80): 95 % of control
- T/C (dose: 320.0 mg/kg/injection, schedule: Q01DX009 (ip), vehicle: saline with Tween-80): 100 % of control

SMILES: O=P(O)(NCCCl)NCCCl
- T/C (dose: 25.0 mg/kg/injection, schedule: Q01DX001 (ip), vehicle: saline with Tween-80): 111 % of control
- T/C (dose: 50.0 mg/kg/injection, schedule: Q01DX001 (ip), vehicle: saline with Tween-80): 123 % of control
- T/C (dose: 100.0 mg/kg/injection, schedule: Q01DX001 (ip), vehicle: saline with Tween-80): 208 % of control

SMILES: CC1=CC(=NN=c2cc(C)n([O-])c(C)c2)C=C(C)[N+]1=O
- T/C [10]: 102 % of control
- T/C [11]: 100 % of control
- T/C [12]: 104 % of control
- T/C [13]: 105 % of control
- T/C [14]: 86 % of control

SMILES: COC(=O)C(F)C(Br)C(=O)OC (configuration not stated)
- T/C (dose: 3.13 mg/kg/injection, schedule: Q01DX009 (ip), vehicle: saline with Tween-80): 95 % of control
- T/C [15]: 99 % of control
- T/C [10]: 95 % of control
- T/C [11]: 100 % of control
- T/C [12]: 104 % of control

SMILES: C[Si](C)(C)O/C=C1\CCCCC1=O
- T/C [15]: 96 % of control and 98 % of control
- T/C [10]: 96 % of control and 98 % of control
- T/C [11]: 93 % of control and 102 % of control
- T/C [12]: 102 % of control and 107 % of control
- T/C [13]: 104 % of control and 116 % of control
- T/C [14]: 104 % of control and 113 % of control

SMILES: O=[n+]1c2c(n([O-])c3ccccc31)-c1cccc3cccc-2c13
- T/C [11]: 100 % of control
- T/C [12]: 104 % of control
- T/C [13]: 105 % of control

SMILES: Nc1ccn(C2OC(CO)C(O)C2O)c(=O)n1 (configuration not stated)
- T/C [8]: 98 % of control
- T/C (dose: 30.0 mg/kg/injection, schedule: Q01DX006 (ip), vehicle: saline): 281 % of control
- T/C (dose: 60.0 mg/kg/injection, schedule: Q01DX009 (ip), vehicle: saline): 234 % of control
- T/C (dose: 980.0 mg/kg/injection, schedule: Q04DX003 (ip), vehicle: saline): 121 % of control
- T/C (dose: 2000.0 mg/kg/injection, schedule: Q04DX003 (ip), vehicle: saline): 93 % of control

SMILES: COc1ccc2[nH]c3ccc4cc[n+](CCN5CCC(C6CCN(CC[n+]7ccc8ccc9[nH]c%10ccc(OC)cc%10c9c8c7)CC6)CC5)cc4c3c2c1
- T/C [5]: 98 % of control
- T/C [6]: 114 % of control

SMILES: Clc1ccc2nnnn2n1
- T/C [10]: 102 % of control
- T/C [11]: 115 % of control
- T/C [12]: 104 % of control
- T/C [13]: 98 % of control
- T/C [14]: 108 % of control

SMILES: Cc1ccc(NCC2(/N=C/c3ccccc3)OC(CO)C(O)C2O)cc1 (configuration not stated)
- T/C [5]: 103 % of control
- T/C [6]: 95 % of control
- T/C [7]: 100 % of control
- T/C [16]: 99 % of control
- T/C (dose: 200.0 mg/kg/injection, schedule: Q01DX009 (ip), vehicle: Klucel (hydroxypropylcellulose) (HPC)): 96 % of control
- T/C (dose: 400.0 mg/kg/injection, schedule: Q01DX009 (ip), vehicle: Klucel (hydroxypropylcellulose) (HPC)): 86 % of control

SMILES: NC(Cc1ccc(N(CCCl)CCCl)cc1)C(=O)O (configuration not stated)
- T/C (dose: 0.5 mg/kg/injection, schedule: Q01DX009 (ip), vehicle: Klucel (hydroxypropylcellulose) (HPC)): 94 % of control
- T/C (dose: 1.0 mg/kg/injection, schedule: Q01DX009 (ip), vehicle: Klucel (hydroxypropylcellulose) (HPC)): 97 % of control
- T/C (dose: 2.0 mg/kg/injection, schedule: Q01DX009 (ip), vehicle: Klucel (hydroxypropylcellulose) (HPC)): 122 % of control

SMILES: CC12C(=O)C=CCC1=CCC1C2CCC2(O)C(=O)OC3(C)C4CC5(C)C(COC16OC23C5C6=O)C(=O)O4 (configuration not stated)
- T/C [6]: 101 % of control
- T/C [7]: 100 % of control
- T/C [16]: 105 % of control

SMILES: NCCCNCCSP(=O)(O)O
- T/C (dose: 300.0 mg/kg/injection, schedule: Q01DX001 (ip), vehicle: saline): 88 % of control
- T/C (dose: 500.0 mg/kg/injection, schedule: Q01DX001 (ip), vehicle: saline): 88 % of control

SMILES: CCOC(=O)NC(N)=O
- T/C [12]: 97 % of control
- T/C [13]: 100 % of control
- T/C [14]: 122 % of control
- T/C (dose: 400.0 mg/kg/injection, schedule: Q01DX009 (ip), vehicle: saline with Tween-80): 107 % of control

SMILES: CC1(C)COCN1COC1CCCCC1
- T/C [9]: 112 % of control and 118 % of control
- T/C [1]: 98 % of control and 111 % of control
- T/C [2]: 97 % of control and 115 % of control
- T/C [3]: 95 % of control and 99 % of control

SMILES: O=P1(NCCCl)OCCCN1CCCl (configuration not stated)
- T/C [9]: 114 % of control
- T/C [1]: 112 % of control
- T/C [2]: 163 % of control
- T/C [3]: 305 % of control
- T/C (dose: 108.0 mg/kg/injection, schedule: Q01DX001 (ip), vehicle: water): 112 % of control
- T/C (dose: 190.0 mg/kg/injection, schedule: Q01DX001 (ip), vehicle: saline): 283 % of control
- T/C (dose: 289.0 mg/kg/injection, schedule: Q01DX001 (ip), vehicle: saline): 283 % of control
- T/C (dose: 431.0 mg/kg/injection, schedule: Q01DX001 (ip), vehicle: saline): 212 % of control
- T/C (dose: 500.0 mg/kg/injection, schedule: Q01DX001 (ip), vehicle: water): 91 % of control
